Reference: ChEMBL document CHEMBL5385855, “Design and synthesis of hederagenin derivatives modulating STING/NF-κB signaling for the relief of acute liver injury in septic mice” (2023)
Calls of active or inactive are those of the source. The calls are words filed in the database; no cut-off is given here.

Columns and labels:
RAW264.7 [1] = assay: Cytotoxicity against mouse RAW264.7 cells assessed as reduction in cell viability at 40 uM incubated for 4 hrs by MTT assay; format: functional
RAW264.7 [2] = assay: Antiinflammatory activity in mouse RAW264.7 cells assessed as inhibition of LPS-induced NO production at 20 uM preincubated with compound for 2 hrs followed by LPS stimulation and measured after 24 hrs by Griess reagent based analysis; format: functional, cell-based; conditions: time 26.0 hrs
RAW264.7 [3] = assay: Antiinflammatory activity in mouse RAW264.7 cells assessed as reduction in LPS-induced IL-6 level at 20 uM preincubated with compound for 2 hrs followed by LPS stimulation and measured after 6 hrs by ELISA analysis; format: functional, cell-based; conditions: time 8.0 hrs
Mus musculus [4] = assay: Antiinflammatory activity against LPS-induced liver injury BALB/c mouse model assessed as reduction in AST level in serum at 1 to 9 mg/kg, ip pretreated with compound for 3 days followed by LPS-induction and measured after 12 hrs; format: functional, organism-based; conditions: dose 1-9 mg/kg, time 3.5 day
Mus musculus [5] = assay: Antiinflammatory activity against LPS-induced liver injury BALB/c mouse model assessed as reduction in hemorrhage severity at 1 to 9 mg/kg, ip pretreated with compound for 3 days followed by LPS-induction and measured after 12 hrs by H and E staining based analysis; format: functional, organism-based; conditions: dose 1-9 mg/kg, time 3.5 day
Mus musculus [6] = assay: Antiinflammatory activity against LPS-induced liver injury BALB/c mouse model assessed as reduction in IL-6 level in liver at 1 to 9 mg/kg, ip pretreated with compound for 3 days followed by LPS-induction and measured after 12 hrs; format: functional, organism-based; conditions: dose 1-9 mg/kg, time 3.5 day
Mus musculus [7] = assay: In-vivo inhibition of STING/IRF3/NF-kappaB activation in liver septic mouse model assessed as reduction in p65 phosphorylation at 1 to 9 mg/kg, ip pretreated with compound for 3 days followed by LPS-induction and measured after 2 hrs by Western blotting analysis; format: functional, organism-based; conditions: dose 1-9 mg/kg, time 74.0 hrs
Mus musculus [8] = assay: In-vivo inhibition of STING/IRF3/NF-kappaB activation in liver septic mouse model assessed as reduction in STING level at 1 to 9 mg/kg, ip pretreated with compound for 3 days followed by LPS-induction and measured after 2 hrs by Western blotting analysis; format: functional, organism-based; conditions: dose 1-9 mg/kg, time 74.0 hrs
RAW264.7 [9] = assay: Antiinflammatory activity in mouse RAW264.7 cells assessed as inhibition of LPS-induced iNOS expression at 20 uM preincubated with compound for 2 hrs followed by LPS stimulation and measured after 6 hrs by ELISA analysis; format: functional, cell-based; conditions: time 8.0 hrs
Mus musculus [10] = assay: In-vivo inhibition of STING/IRF3/NF-kappaB activation in liver septic mouse model assessed as reduction in TBK phosphorylation at 1 to 9 mg/kg, ip pretreated with compound for 3 days followed by LPS-induction and measured after 2 hrs by Western blotting analysis; format: functional, organism-based; conditions: dose 1-9 mg/kg, time 74.0 hrs
Mus musculus [11] = assay: Antiinflammatory activity against LPS-induced liver injury BALB/c mouse model assessed as reduction in TNF-alpha level in liver at 1 to 9 mg/kg, ip pretreated with compound for 3 days followed by LPS-induction and measured after 12 hrs; format: functional, organism-based; conditions: dose 1-9 mg/kg, time 3.5 day
[12] = target: T1, Stimulator of interferon genes protein (Mus musculus) (UniProt Q3TBT3); assay: Activation of STING signaling pathway in mouse RAW264.7 cells assessed as inhibition of LPS-induced p65 phosphorylation at 2.5 to 10 uM pretreated with compound for 2 hrs followed by LPS-induction and measured after 6 hrs by Western blot analysis; format: cell-based; conditions: filed as activator, dose 2.5-10 µM, time 8.0 hrs
T1 sequence (whole entry): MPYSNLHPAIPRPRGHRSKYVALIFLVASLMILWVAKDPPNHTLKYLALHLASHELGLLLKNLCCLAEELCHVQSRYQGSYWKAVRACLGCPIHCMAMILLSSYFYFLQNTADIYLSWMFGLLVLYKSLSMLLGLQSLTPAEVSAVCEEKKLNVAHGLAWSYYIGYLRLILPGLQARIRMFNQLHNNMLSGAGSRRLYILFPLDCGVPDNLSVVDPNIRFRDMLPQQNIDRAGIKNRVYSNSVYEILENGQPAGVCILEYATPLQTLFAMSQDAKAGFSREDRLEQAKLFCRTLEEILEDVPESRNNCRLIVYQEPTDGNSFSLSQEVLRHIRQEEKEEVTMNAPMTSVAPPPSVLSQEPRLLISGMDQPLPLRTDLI

[13] = target: T1, Stimulator of interferon genes protein (Mus musculus); assay: Activation of STING signaling pathway in mouse RAW264.7 cells assessed as inhibition of LPS-induced IRF3 phosphorylation at 2.5 to 10 uM pretreated with compound for 2 hrs followed by LPS-induction and measured after 6 hrs by Western blot analysis; format: cell-based; conditions: filed as activator, dose 2.5-10 µM, time 8.0 hrs
Mus musculus [14] = assay: Antiinflammatory activity against LPS-induced liver injury BALB/c mouse model assessed as reduction in ALP level in serum at 1 to 9 mg/kg, ip pretreated with compound for 3 days followed by LPS-induction and measured after 12 hrs; format: functional, organism-based; conditions: dose 1-9 mg/kg, time 3.5 day
[15] = target: T1, Stimulator of interferon genes protein (Mus musculus); assay: Activation of STING signaling pathway in mouse RAW264.7 cells assessed as inhibition of LPS-induced TBK1 phosphorylation at 2.5 to 10 uM pretreated with compound for 2 hrs followed by LPS-induction and measured after 6 hrs by Western blot analysis; format: cell-based; conditions: filed as activator, dose 2.5-10 µM, time 8.0 hrs
RAW264.7 [16] = assay: Antiinflammatory activity in mouse RAW264.7 cells assessed as reduction in LPS-induced IFN-beta level at 20 uM preincubated with compound for 2 hrs followed by LPS stimulation and measured after 6 hrs by ELISA analysis; format: functional, cell-based; conditions: time 8.0 hrs
[17] = target: T1, Stimulator of interferon genes protein (Mus musculus); assay: Activation of STING signaling pathway in mouse RAW264.7 cells assessed as inhibition of LPS-induced IkappaB-alpha phosphorylation at 2.5 to 10 uM pretreated with compound for 2 hrs followed by LPS-induction and measured after 6 hrs by Western blot analysis; format: cell-based; conditions: filed as activator, dose 2.5-10 µM, time 8.0 hrs
Mus musculus [18] = assay: In-vivo inhibition of STING/IRF3/NF-kappaB activation in liver septic mouse model assessed as reduction in IRF3 phosphorylation at 1 to 9 mg/kg, ip pretreated with compound for 3 days followed by LPS-induction and measured after 2 hrs by Western blotting analysis; format: functional, organism-based; conditions: dose 1-9 mg/kg, time 74.0 hrs
[19] = target: T1, Stimulator of interferon genes protein (Mus musculus); assay: Binding affinity to STING in mouse RAW264.7 cells assessed as thermal stabilization at 49 to 55 degree C at 5 to 50 uM measured for 12 hrs by cellular thermal shift assay; format: cell-based; conditions: filed as modulator, dose 5-50 µM
Mus musculus [20] = assay: In-vivo inhibition of STING/IRF3/NF-kappaB activation in liver septic mouse model assessed as reduction in IkappaB-alpha phosphorylation at 1 to 9 mg/kg, ip pretreated with compound for 3 days followed by LPS-induction and measured after 2 hrs by Western blotting analysis; format: functional, organism-based; conditions: dose 1-9 mg/kg, time 74.0 hrs
RAW264.7 [21] = assay: Antiinflammatory activity in mouse RAW264.7 cells assessed as reduction in LPS-induced TNF-alpha level at 20 uM preincubated with compound for 2 hrs followed by LPS stimulation and measured after 6 hrs by ELISA analysis; format: functional, cell-based; conditions: time 8.0 hrs
Mus musculus [22] = assay: Antiinflammatory activity against LPS-induced liver injury BALB/c mouse model assessed as reduction in IFN-beta level in liver at 1 to 9 mg/kg, ip pretreated with compound for 3 days followed by LPS-induction and measured after 12 hrs; format: functional, organism-based; conditions: dose 1-9 mg/kg, time 3.5 day
Mus musculus [23] = assay: Antiinflammatory activity against LPS-induced liver injury BALB/c mouse model assessed as reduction in ALT level in serum at 1 to 9 mg/kg, ip pretreated with compound for 3 days followed by LPS-induction and measured after 12 hrs; format: functional, organism-based; conditions: dose 1-9 mg/kg, time 3.5 day

CC1(C)CC[C@]2(C(=O)OCc3ccccc3)CC[C@]3(C)C(=CC[C@@H]4[C@@]5(C)Cc6nccnc6[C@@](C)(COC(=O)CCC(=O)n6cccn6)[C@@H]5CC[C@]43C)[C@@H]2C1
Activity (RAW264.7 [1]): <90%

CC1(C)CC[C@]2(C(=O)OCc3ccccc3)CC[C@]3(C)C(=CC[C@@H]4[C@@]5(C)Cc6nccnc6[C@@](C)(COC(=O)CCC(=O)N6CCOCC6)[C@@H]5CC[C@]43C)[C@@H]2C1
Activity (RAW264.7 [1]): <90%

CC1(C)CC[C@]2(C(=O)N3CCCC3C(=O)O)CC[C@]3(C)C(=CC[C@@H]4[C@@]5(C)Cc6nccnc6[C@@](C)(CO)[C@@H]5CC[C@]43C)[C@@H]2C1 (some centres not stated)
Activity (RAW264.7 [1]): >90%
Activity (RAW264.7 [2]): Active

CC1(C)CC[C@]2(C(=O)OCc3ccccc3)CC[C@]3(C)C(=CC[C@@H]4[C@@]5(C)Cc6nccnc6[C@@](C)(COC(=O)CCC(=O)N6CCCCC6)[C@@H]5CC[C@]43C)[C@@H]2C1
Activity (RAW264.7 [1]): >90%
Activity (RAW264.7 [2]): Active

CC1(C)CC[C@]2(C(=O)N3CCOCC3)CC[C@]3(C)C(=CC[C@@H]4[C@@]5(C)Cc6nccnc6[C@@](C)(CO)[C@@H]5CC[C@]43C)[C@@H]2C1
Activity (RAW264.7 [1]): >90%
Activity (RAW264.7 [2]): Active

CC1(C)CC[C@]2(C(=O)OCc3ccccc3)CC[C@]3(C)C(=CC[C@@H]4[C@@]5(C)Cc6nccnc6[C@@](C)(COC(=O)CCC(=O)N6CCCC6)[C@@H]5CC[C@]43C)[C@@H]2C1
Activity (RAW264.7 [1]): <90%

CC1(C)CC[C@]2(C(=O)OCc3ccccc3)CC[C@]3(C)C(=CC[C@@H]4[C@@]5(C)Cc6nccnc6[C@@](C)(COC(=O)CCC(=O)Nc6ncn[nH]6)[C@@H]5CC[C@]43C)[C@@H]2C1
Activity (RAW264.7 [1]): <90%

CC1(C)CC[C@]2(C(=O)OCc3ccccc3)CC[C@]3(C)C(=CC[C@@H]4[C@@]5(C)Cc6nccnc6[C@@](C)(COC(=O)CCC(=O)n6nnc7ccccc76)[C@@H]5CC[C@]43C)[C@@H]2C1
Activity (RAW264.7 [1]): <90%

CC1(C)CC[C@]2(C(=O)O)CC[C@]3(C)C(=CC[C@@H]4[C@@]5(C)Cc6nccnc6[C@@](C)(CO)[C@@H]5CC[C@]43C)[C@@H]2C1
Activity (RAW264.7 [3]): Active
Activity (Mus musculus [4]): Active
Activity (Mus musculus [5]): Active
Activity (Mus musculus [6]): Active
inhibition (Mus musculus [7]): Active
Activity (RAW264.7 [1]): >90%
inhibition (Mus musculus [8]): Active
Activity (RAW264.7 [9]): Active
inhibition (Mus musculus [10]): Active
Activity (Mus musculus [11]): Active
Activity [12]: Active
Activity [13]: Active
Activity (Mus musculus [14]): Active
Activity [15]: Active
Activity (RAW264.7 [16]): Active
Activity [17]: Active
inhibition (Mus musculus [18]): Active
Activity [19]: Active
Activity (RAW264.7 [2]): Active
inhibition (Mus musculus [20]): Active
Activity (RAW264.7 [21]): Active
Activity (Mus musculus [22]): Active
Activity (Mus musculus [23]): Active

CCOC(=O)c1noc2c1C[C@@]1(C)[C@@H](CC[C@]3(C)[C@@H]1CC=C1[C@@H]4CC(C)(C)CC[C@]4(C(=O)OCc4ccccc4)CC[C@]13C)[C@]2(C)CO
Activity (RAW264.7 [1]): >90%

CC(C)CC(NC(=O)[C@]12CCC(C)(C)C[C@H]1C1=CC[C@@H]3[C@@]4(C)Cc5nccnc5[C@@](C)(CO)[C@@H]4CC[C@@]3(C)[C@]1(C)CC2)C(=O)O (some centres not stated)
Activity (RAW264.7 [1]): >90%

Cc1nc2c(s1)C[C@@]1(C)[C@@H](CC[C@]3(C)[C@@H]1CC=C1[C@@H]4CC(C)(C)CC[C@]4(C(=O)O)CC[C@]13C)[C@]2(C)CO
Activity (RAW264.7 [1]): >90%

CCOC(=O)c1noc2c1C[C@@]1(C)[C@@H](CC[C@]3(C)[C@@H]1CC=C1[C@@H]4CC(C)(C)CC[C@]4(C(=O)OCc4ccccc4)CC[C@]13C)[C@]2(C)COC(=O)CCC(=O)O
Activity (RAW264.7 [1]): >90%

O=C(Nc1ccc(I)cc1)c1ccc([N+](=O)[O-])o1
Activity (Mus musculus [4]): Active
Activity (Mus musculus [5]): Active
Activity (Mus musculus [6]): Active
inhibition (Mus musculus [7]): Active
inhibition (Mus musculus [8]): Active
inhibition (Mus musculus [10]): Active
Activity (Mus musculus [11]): Active
Activity [12]: Active
Activity [13]: Active
Activity (Mus musculus [14]): Active
Activity [15]: Active
Activity [17]: Active
inhibition (Mus musculus [18]): Active
inhibition (Mus musculus [20]): Active
Activity (Mus musculus [22]): Active
Activity (Mus musculus [23]): Active

CN1CCN(C(=O)CCC(=O)OC[C@]2(C)c3nccnc3C[C@@]3(C)[C@H]2CC[C@]2(C)[C@@H]3CC=C3[C@@H]4CC(C)(C)CC[C@]4(C(=O)OCc4ccccc4)CC[C@]32C)CC1
Activity (RAW264.7 [1]): <90%

CC1(C)CC[C@]2(C(=O)NC(Cc3ccccc3)C(=O)O)CC[C@]3(C)C(=CC[C@@H]4[C@@]5(C)Cc6nccnc6[C@@](C)(CO)[C@@H]5CC[C@]43C)[C@@H]2C1 (some centres not stated)
Activity (RAW264.7 [1]): >90%
Activity (RAW264.7 [2]): Active
